The text below walks through data of US7371775B2, “7-carboxymethyloxy-3′,4′,5-trimethoxy flavone monohydrate, the preparation method and uses thereof” (Dong-A Pharmaceuticals Co., Ltd, priority 2003, dated 2008).

The structures appear in SMILES notation. Where two headings read alike, the source gives them in different places.

Series [1] can be described thus: Hygroscopicity test: weight changes at 25° C., 75% relative humidity. The format is physicochemical. The method, then: 7-carboxymethyloxy-3′,4′,5-trimethoxy flavone.monohydrate prepared in the above example 1 or example 2 was exactly measured by using a weighing bottle (6 cm in diameter). 1 g of the 7-carboxymethyloxy-3′,4′,5-trimethoxy flavone.monohydrate was prepared as a sample. The sample was kept in a vessel in which temperature was set; at 25° C. and 75% relative humidity was maintained. Weight changes of the sample were measured after 2, 4, and 6 hours and on the first day, on the 3rd day, and on the 6th day. The amount of weight change was calculated as percentage to the starting weight of the sample and the results are shown in Table 1.
Weight changes of 7-carboxymethyloxy-3′,4′,5-trimethoxy flavone.anhydride prepared in the comparative example were also measured by the same method as mentioned above, and the results are shown in Table 1.

Series [2] is described as follows: Test of conversion of ethanol solvate into monohydrate: weight changes at 25° C., 75% relative humidity. Format: physicochemical. Here is the method: 7-carboxymethyloxy-3′,4′,5-trimethoxy flavone.monohydrate prepared in the above example 1 or example 2 was measured by using a weighing bottle (6 cm in diameter). 1 g of the 7-carboxymethyloxy-3′,4′,5-trimethoxy flavone.monohydrate was prepared as a sample. The sample was kept in a receptacle in which temperature was set at 25° C. and 75% relative humidity. On the let, 1st, 2nd, 3rd and 6th day, the weight of samples were measured.
Weight changes of 7-carboxymethyloxy-3′,4′,5-trimethoxy flavone.ethanol solvate prepared in the above example 3 were also investigated by the same method as mentioned above, and the results are shown in Table 2.

The subject of series [3] is gastric mucosal damage induced by ethanolic-HCl. The series is described as follows: Gastric mucosal damaged model induced by ethanolic-HCl (ulcer index). Format: in vivo, SD male rats. The settings on record: rats, oral; for ED50: Rattus norvegicus, 1 hour before 150 mM HCl-80% ethanol, ulcer index. The method, then: SD male rats (250-350 g) were fasted for 24 hours. The compound of the present invention was orally administered in suspension of 5% HPMC, and after 1 hour, 1.5 ml of 150 mM HCl-80% ethanol was orally administered. After 1 hour, the rats were sacrificed and the stomachs were extracted to measure ulcer index. The ulcer index was shown by the area (mm^2) of hemorrhage lesion (Mizui, T, et al., Jpn. J. Pharmacol. 1983, 33: 939).
Rebamipide [2-(4-chlorobenzoylamino)-3-(2-(1H)-quinolinone-4-yl)propanonic acid] (Trade Name: Mucosta) was used as a control medicine.

Series [4] has as its system TNBS-induced colitis model. The series is described as follows: Model of inflammatory bowel diseases induced with TNBS (lesion score). The format is in vivo, male SD rats. The method, then: The modified method of Shibata et al. (Dig. Endosc. 1993, 5: 13) was used. 7 week-old male SD rats (CRJ) were fasted for a day, and the rats were put under anesthesia and canula (diameter 3 mm) was inserted into the anus to the depth of 8 cm. 25 mg/ml of TNBS (Trinitrobenzene sulfonic acid) dissolved in 50% ethanol solution was injected to each rat and the rats were positioned at feature of tail up for 1 minute. The solution flowing out was removed and the rats were once washed with 1.5 ml of saline solution. After colitis was induced, the compound of the present invention was administered orally or rectally from the next day of inducing to the 6th day. For control medicine, sulfasalazine […] was used for oral administration and prednisolone was used for rectal administration. And for control group, 5% HPMC was administered. On the 7th day of experiment, each group of the rats was put under ether anesthesia for autopsy. The colon was extracted. After 1% formalin solution was injected into the cavity of the extracted colon to inflate, the both ends of it were bonded with each other, which was then fixed in 1% formalin solution for 2 hours. The all-fixed colon was cut to lengthy direction and washed to remove surrounding fat tissues and connective fissaes. Cecum was removed and the weight of the colon and the rectum was measured. The area of ulcer lesion and inflammatory region were measured to mark scores according to the criterion. Then they were fixed in 10% neutral formalin solution, and the tissue examination of lesion site was performed by a general method to mark scores according to criterion.
Clinical symptoms: Daily, clinical symptoms and survival of the animals were observed. The weight of animals was measured at the beginning day, the 3rd day and the 8th day of the experiment.
Observation with naked eye: The number and the width of the ulcer and lesion area formed in the large intestine were measured and recorded. By using modified Wallace's method (Can. J. Physiol. Pharmacol., 1988, 66: 422), lesion examined with the naked eye was scored and the average value of each group was compared. The standard of lesion scores as criterion of the damage of the colon by Wallace's method […] is as follows.
(0: normal, non-damaged, 1: congestion without ulcer, 2: congestion and thickening of intestinal wall without ulcer, 3: an ulcer lesion without thickening of intestinal wall, 4: more than two ulcerous/inflammatory lesion, 5: more than two ulcerous/inflammatory lesion or the length of ulcerous/inflammatory lesion is more than 1 cm, 6-10: when the length of lesion is over 2 cm, one point increases every time 1 cm of the length of ulcerous/inflammatory increases, for example: when the ulcer length is 3 cm, the point is 7)
Pathological tissue examination: The colon was trimmed at 3 cm interval from the rectum to the cecum, including the site of lesion examined with the naked eye, to make at least 4 specimens per an individual. Pathological tissue examination on the specimens was performed and the results were scored by modified method of Moyama (Ann. Clin. Lab. Sci., 1990, 20: 420). And the highest score was regarded as the score of an individual. When the lesion cannot be examined with the naked eye, the other specimen having lesion was trimmed, at 3 cm interval, from another individual.

The mark [5] stands for this setting: listed as 7-carboxymethyloxy-3′,4′,5-trimethoxy flavone.monohydrate.

The ED50 is the dose that gives a 50% effect, or the effect in half of the subjects.

For the compound `COc1ccc(-c2cc(=O)c3c(OC)cc(OCC(=O)O)cc3o2)cc1OC` [Anhydride, reference compound], the “Weight changes according to the time lapse (%)” value (from here on “Weight changes according … (%)”) is 0% in series [1] (0 h); “+3.4%” in series [1] (2 h); 3.4% in series [1] (2 h, listed as 7-carboxymethyloxy-3′,4′,5-trimethoxy flavone.anhydride); “+4.7%” in series [1] (4 h); “+4.7%” in series [1] (6 h); “+4.6%” in series [1] (1 day). In addition, the results for the “Weight changes according … (%)” value in series [1] (3 day) and in series [1] (6 day) were “+4.5%” and “+4.6%”, respectively. Further, the “weight increase (average)” value in series [1] (from the 4th hour) is reported as 4.6%.

For the compound `COc1ccc(-c2cc(=O)c3c(OC)cc(OCC(=O)O)cc3o2)cc1OC` [Ethanol solvate, 7-carboxymethyloxy-3′,4′,5-trimethoxy flavone.ethanol solvate], the “weight change / conversion (in words)” value in series [2] is on record as “converted into monohydrate”. For the same compound, the “Weight changes according … (%)” value in series [2] (0 day) was 0%; in series [2] (1 day), −4.1%; in series [2] (2 day), −6.5%; in series [2] (3 day), −6.5%; in series [2] (6 day) it was −6.5%. Moreover, the “weight decrease (average)” value in series [2] (after one day) was found to be 4.1%; in series [2] (after two days, constant thereafter) it was 6.5%.

In the case of `COc1ccc(-c2cc(=O)c3c(OC)cc(OCC(=O)O)cc3o2)cc1OC` [Monohydrate, 7-carboxymethyloxy-3′,4′,5-trimethoxy flavone.monohydrate], the “Weight changes according … (%)” value was 0% in series [2] (0 day); −0.3% in series [2] (1 day); “+0.3%” in series [2] (2 day); “+0.3%” in series [2] (3 day); “+0.3%” in series [2] (6 day); 0% in series [1] (0 h). For the same compound, the “Weight changes according … (%)” value in series [1] (2 h) is reported as −0.2%; in series [1] (4 h) it was −0.3%; in series [1] (6 h), “+0.2%”; in series [1] (1 day), −0.3%; in series [1] (3 day), “+0.3%”; in series [1] (6 day), “+0.3%”. Also, in series [2] (setting [5]), the “weight change / conversion (in words)” value was “did not show any weight change”. In series [3], this compound showed an ED50 of 0.33 mg/kg. Moreover, in series [3] (ratio of ED50), the “protecting effect on the damage of gastric mucosa relative to Rebamipide” value is on record as “at least 100 times”. The “weight change / hygroscopicity (in words)” value is reported as “did not show any weight change” in series [1] (setting [5]) and “no weight change” in series [1] (listed as monohydrate). Further, the “effect on the TNBS-induced inflammatory colitis model (in words)” value in series [4] (oral and rectal administration) was “showed inhibiting effect”. The Lesion score in series [4] (orally administered, 0.3 mg/kg p.o, control 5% HPMC 9.0) worked out at 7.5; in series [4] (orally administered, 3 mg/kg p.o, control 5% HPMC 9.0) it was 5.9; in series [4] (rectally administered, 0.3 mg/kg, control 5% HPMC 5.3), 2.0.

Compound `C[C@]12C=CC(=O)C=C1CC[C@@H]1[C@@H]2[C@@H](O)C[C@@]2(C)[C@H]1CC[C@]2(O)C(=O)CO` [Prednisolone, reference compound] returned a Lesion score in series [4] (rectally administered, 1 mg/kg, control 5% HPMC 5.3) of 4.8.

`O=C(NC(Cc1cc(=O)[nH]c2ccccc12)C(=O)O)c1ccc(Cl)cc1` (centres unmarked) [Rebamipide, 2-(4-chlorobenzoylamino)-3-(2-(1H)-quinolinone-4-yl)propanonic acid, reference compound]: in series [3], the 50% effective dose (ED50) turned out to be 44.2 mg/kg.

For `O=C(O)c1cc(/N=N/c2ccc(S(=O)(=O)Nc3ccccn3)cc2)ccc1O` [Sulfasalazine, reference compound], the Lesion score in series [4] (orally administered, 100 mg/kg p.o, control 5% HPMC 9.0) was 7.7.
